Experimental data published in patent US20250135006A1, “AMPHIPHILIC TLR7/8 ADJUVANTS AND USES THEREOF” (Pfizer Inc., priority 2023, published 2025).

Columns and labels:
[1] = biological target: T1, human toll like receptor 7 (hTLR7) (Homo sapiens, UniProt Q9NYK1); experiment: hTLR7 in-vitro functional assay (HEK-Blue hTLR7 SEAP reporter); format: cell-based; settings: HEK-Blue hTLR7 cells, overnight incubation
T1 construct: host or cells: HEK293 (HEK-Blue hTLR7)
T1 sequence (Q9NYK1 27-1049): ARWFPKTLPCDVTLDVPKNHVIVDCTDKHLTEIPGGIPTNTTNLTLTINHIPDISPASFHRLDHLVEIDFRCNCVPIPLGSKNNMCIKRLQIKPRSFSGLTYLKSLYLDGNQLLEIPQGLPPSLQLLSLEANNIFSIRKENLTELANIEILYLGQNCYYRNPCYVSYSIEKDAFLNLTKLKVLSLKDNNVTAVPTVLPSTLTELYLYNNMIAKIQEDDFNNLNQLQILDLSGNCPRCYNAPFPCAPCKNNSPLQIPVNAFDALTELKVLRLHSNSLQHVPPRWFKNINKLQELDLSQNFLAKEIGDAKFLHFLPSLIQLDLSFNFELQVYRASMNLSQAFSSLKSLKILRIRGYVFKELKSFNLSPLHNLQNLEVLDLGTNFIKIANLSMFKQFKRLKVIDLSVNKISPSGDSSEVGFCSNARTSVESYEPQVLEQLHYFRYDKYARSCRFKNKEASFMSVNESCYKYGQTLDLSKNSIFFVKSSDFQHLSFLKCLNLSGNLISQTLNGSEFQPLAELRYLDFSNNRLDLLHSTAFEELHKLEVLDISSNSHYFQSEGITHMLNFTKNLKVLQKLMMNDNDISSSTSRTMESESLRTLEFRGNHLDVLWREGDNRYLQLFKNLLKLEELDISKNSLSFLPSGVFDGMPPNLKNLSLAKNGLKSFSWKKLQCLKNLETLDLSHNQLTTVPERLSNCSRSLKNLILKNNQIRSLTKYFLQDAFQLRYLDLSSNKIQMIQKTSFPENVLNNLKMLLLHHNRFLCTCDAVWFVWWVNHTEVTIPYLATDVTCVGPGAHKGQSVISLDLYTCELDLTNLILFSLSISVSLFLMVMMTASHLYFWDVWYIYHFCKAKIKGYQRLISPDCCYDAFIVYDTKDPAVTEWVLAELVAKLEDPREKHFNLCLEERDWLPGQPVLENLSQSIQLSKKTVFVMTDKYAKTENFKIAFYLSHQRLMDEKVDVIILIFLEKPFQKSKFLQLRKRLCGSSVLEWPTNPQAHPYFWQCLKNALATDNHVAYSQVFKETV

[2] = biological target: T2, human toll like receptor 8 (hTLR8) (Homo sapiens, UniProt Q9NR97); experiment: hTLR8 in-vitro functional assay (HEK-Blue hTLR8 SEAP reporter); format: cell-based; settings: HEK-Blue hTLR8 cells, overnight incubation
T2 construct: host or cells: HEK293 (HEK-Blue hTLR8)
T2 sequence (Q9NR97 27-1041): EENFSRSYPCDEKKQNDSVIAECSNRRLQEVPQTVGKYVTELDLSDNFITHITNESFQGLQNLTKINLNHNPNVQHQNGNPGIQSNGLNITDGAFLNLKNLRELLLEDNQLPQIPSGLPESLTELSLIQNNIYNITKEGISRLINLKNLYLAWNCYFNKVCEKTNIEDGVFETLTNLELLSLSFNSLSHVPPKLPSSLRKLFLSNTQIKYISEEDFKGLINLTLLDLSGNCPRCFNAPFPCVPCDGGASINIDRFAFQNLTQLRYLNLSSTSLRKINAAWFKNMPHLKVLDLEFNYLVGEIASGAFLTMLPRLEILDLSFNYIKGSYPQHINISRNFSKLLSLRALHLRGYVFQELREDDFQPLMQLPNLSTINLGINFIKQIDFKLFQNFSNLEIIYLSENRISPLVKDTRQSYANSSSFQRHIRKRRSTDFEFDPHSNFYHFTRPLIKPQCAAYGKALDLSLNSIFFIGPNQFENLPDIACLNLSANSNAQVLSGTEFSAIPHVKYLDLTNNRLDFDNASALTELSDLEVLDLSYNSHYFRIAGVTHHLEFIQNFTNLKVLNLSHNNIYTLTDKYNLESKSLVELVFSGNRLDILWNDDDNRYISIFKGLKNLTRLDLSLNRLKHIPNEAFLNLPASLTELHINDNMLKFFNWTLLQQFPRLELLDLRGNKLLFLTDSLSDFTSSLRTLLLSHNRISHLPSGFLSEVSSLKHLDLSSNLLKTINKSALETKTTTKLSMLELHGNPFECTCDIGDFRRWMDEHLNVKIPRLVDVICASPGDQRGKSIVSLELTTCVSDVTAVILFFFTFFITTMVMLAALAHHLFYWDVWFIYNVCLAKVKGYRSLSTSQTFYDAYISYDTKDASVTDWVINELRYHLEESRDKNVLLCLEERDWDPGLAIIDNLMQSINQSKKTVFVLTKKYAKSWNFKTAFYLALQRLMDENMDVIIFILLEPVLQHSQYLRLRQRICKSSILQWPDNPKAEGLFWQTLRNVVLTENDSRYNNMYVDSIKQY

CCCCc1nc2c(N)nc3cc(CCCN4CCN(C(=O)CCOCCOCCOCCOCCOCCOCCOCCOCCOCCOCCOCCOCCOCCOCCOCCOCCOCCOCCOCCOCCOCCOCCOCCOCCNC(=O)CCOCCOCCOCCOCCNC(=O)CCCOc5c(C)c(C)c6c(c5C)CC[C@@](C)(CCC[C@H](C)CCC[C@H](C)CCCC(C)C)O6)CC4)ccc3c2n1CC(C)(CO)CO [Compound 2, N-{75-[4-(3-{4-amino-2-butyl-1-[3-hydroxy-2-(hydroxymethyl)-2-methylpropyl]-1H-imidazo[4,5-c]quinolin-7-yl}propyl)piperazin-1-yl]-75-oxo-3,6,9,12,15,18,21,24,27,30,33,36,39,42,45,48,51,54,57,60,63,66,69,72-tetracosaoxapentaheptacont-1-yl}-17-oxo-20-({(2R)-2,5,7,8-tetramethyl-2-[(4R,8R)-4,8,12-trimethyltridecyl]-3,4-dihydro-2H-chromen-6-yl}oxy)-4,7,10,13-tetraoxa-16-azaicosan-1-amide]
EC50 [1]: 355 nM | EC50 [2]: 5030 nM
